The assay concerns the target T1, HQDS.b. (Streptomyces bingchenggensis, UniProt D7BW96).
T1 construct: gene SBI_08688; His8-TEV tagged (pET28b), E. coli BL21(DE3), Ni-NTA purified
T1 sequence (D7BW96 1-278): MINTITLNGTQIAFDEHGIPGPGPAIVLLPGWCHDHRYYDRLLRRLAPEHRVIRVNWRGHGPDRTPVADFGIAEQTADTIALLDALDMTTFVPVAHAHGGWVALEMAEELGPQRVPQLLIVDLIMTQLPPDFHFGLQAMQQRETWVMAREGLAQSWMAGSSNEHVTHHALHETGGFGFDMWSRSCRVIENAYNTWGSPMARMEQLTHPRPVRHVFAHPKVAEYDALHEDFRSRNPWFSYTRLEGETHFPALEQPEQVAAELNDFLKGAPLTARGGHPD
Nature of the assay: spectrophotometric PQS consumption at […] nm. The class given is biochemical. The note with it: 50 mM Tris, 2 mM EDTA, 10% PEG 1500, pH 8.0, 30 °C.

Turning to `CCCCCCCc1[nH]c2ccccc2c(=O)c1O` [PQS, 2-heptyl-3-hydroxy-4(1H)-quinolone], the KM entry is listed as “HQDS.b., which exhibits the lowest KM towards PQS among the enzymes tested (Table S1)”.

(Values after article PMC8961568 (Biomolecules, 2022).)
